From patent US9615503B2, “Method for cultivating sugar cane” (BASF SE, priority 2011, dated 2017)

Tested on: sugar cane bud discs
Test: Survival of sugar cane seedlings grown from treated bud discs (greenhouse, then acclimatization)
Assay type: in vivo
Conditions: for Number of surviving seedlings: of 648 planted buds per treatment, bud discs immersed 10 seconds in aqueous solution (pyraclostrobin 1 g/l, fipronil 0.8 g/l, fluxapyroxade 1.2 g/l, thiamethoxam 1.5 g/l), counted after 30 to 45 days greenhouse plus 15 days acclimatization, untreated 211; for Increase of survival rate [%]: relative to untreated buds (211 of 648 surviving), same treatment and concentrations as the number of surviving seedlings
Text: On an area of 0.1 hectares where sugar cane plants were growing with a distance between the rows of 1.5 m, the top part of the 8 months old sugar cane plants was removed by chopping off with a machete in a height of approximately 2 to 2.5 m. The removed top part was discarded. The below, remaining stalks were removed from the field by cutting them off closely above the ground. The stalks were then cut longitudinally into halves in such a manner that the buds were approximately centralized on the halves. From the stalk halves discs of ca. 2 cm of diameter each containing a bud and a part of the respective node were punched off with a punching machine. For each treatment, 648 bud discs were immersed for 10 seconds into an aqueous solution containing either pyraclostrobin (1 g/l; used as the commercial product Comet® of a concentration of 250 g/l of pyraclostrobin) or fipronil (0.8 g/l; used as the commercial product Regent® of a concentration of 800 g/kg of fipronil) or fluxapyroxade (1.2 g/l; used as the commercial product BAS 700 04F of a concentration of 300 g/l) or thiamethoxam (1.5 g/l; used as the commercial product Actara® 250 WG of a concentration of […]). The treated buds were then each placed in individual pots filled with humid coconut fibers. 648 bud discs stayed untreated for comparative reasons and were directly placed in individual pots filled with humid coconut fibers. The pots were placed in a greenhouse, and seedlings were grown from the planted bud discs at 25 to 35° C. and 70 to 80% humidity. While in the greenhouse, the buds/seedlings were watered sufficiently. 30 to 45 days after having been placed in the greenhouse, the surviving seedlings were transferred in an acclimatization area and kept for 15 days. Thereafter they were counted and then transplanted to a field.

## N#Cc1nn(-c2c(Cl)cc(C(F)(F)F)cc2Cl)c(N)c1[S+]([O-])C(F)(F)F (centres unmarked) [Fipronil, fipronil]
  Number of surviving seedlings: 236
  Increase of survival rate [%]: 11.8%

## Cn1cc(C(=O)Nc2ccccc2-c2cc(F)c(F)c(F)c2)c(C(F)F)n1 [Fluxapyroxade, N-(3′,4′,5′-trifluorobiphenyl-2-yl)-3-difluoromethyl-1-methyl-1H-pyrazole-4-carboxamide]
  Number of surviving seedlings: 248
  Increase of survival rate [%]: 17.5%

## COC(=O)N(OC)c1ccccc1COc1ccn(-c2ccc(Cl)cc2)n1 [Pyraclostrobin, pyraclostrobin]
  Number of surviving seedlings: 391
  Increase of survival rate [%]: 85.3%

## CN1COCN(Cc2cnc(Cl)s2)/C1=N\[N+](=O)[O-] [Thiamethoxam, thiamethoxam]
  Number of surviving seedlings: 225
  Increase of survival rate [%]: 6.6%
